Reference: ChEMBL document CHEMBL3045035, “Synthesis and insect antifeedant activity of stilbene derivatives against Brontispa longissima Larvae” (2013)

Legend:
Brontispa longissima [1] = assay: Antifeedant activity against third-instar larval stage of Brontispa longissima in […] assessed as decrease in leaf surface consumption treated for 30 secs prior to larval infestation measured after 48 hr by leaf-dipping method; type: functional
Brontispa longissima [2] = assay: Ratio of compound AFC50 to combrestatin A-4 AFC50 for third-instar larval stage of Brontispa longissima; type: functional

SMILES | AFC50 (Brontispa longissima [1]) | pAFC50 (Brontispa longissima [1]) | Ratio (Brontispa longissima [2])
COc1ccc(/C=C\c2ccc(OC(C)=O)cc2)cc1OC(C)=O | 2.501 mg/mL | -0.4 | –
COc1ccc(/C=C/c2cc(OC)c(OC)c(OC)c2)cc1O [E-COMBRETASTATIN A-4] | 0.357 mg/mL | 0.45 | –
COc1ccc(/C=C(/C(N)=O)c2cc(OC)c(OC)c(OC)c2)cc1O | 0.736 mg/mL | 0.13 | –
COc1cc(/C=C\c2ccc(Cl)cc2)cc(OC)c1OC | 1.634 mg/mL | -0.21 | –
COc1cc(/C=C\c2ccccc2)cc(OC)c1OC | 0.529 mg/mL | 0.28 | –
COc1ccc(/C=C\c2ccc(O)cc2)cc1[N+](=O)[O-] | 1.301 mg/mL | -0.11 | –
Oc1ccc(/C=C\c2ccc3c(c2)OCO3)cc1 | 1.005 mg/mL | 0 | –
COc1cc(/C=C\c2ccc3c(c2)OCO3)cc(OC)c1OC | 0.731 mg/mL | 0.14 | –
COc1ccc(/C=C\c2ccc(OC(C)=O)cc2)cc1 | 0.732 mg/mL | 0.14 | –
COc1cc(/C=C\c2ccc(OC(C)=O)cc2)cc(OC)c1OC | 0.843 mg/mL | 0.07 | 3
O=[N+]([O-])c1ccc(/C=C\c2ccc(O)cc2)cc1 | 1.185 mg/mL | -0.07 | –
COc1cc(/C=C\c2cc(Cl)cc(Cl)c2)cc(OC)c1OC | 2.234 mg/mL | -0.35 | 5
COC(=O)/C(=C/c1ccc(OC)c(O)c1)c1cc(OC)c(OC)c(OC)c1 | 1.453 mg/mL | -0.16 | 7
COc1ccc(/C=C(/C(=O)O)c2cc(OC)c(OC)c(OC)c2)cc1O | 1.461 mg/mL | -0.17 | 7
Oc1ccc(/C=C\c2ccccc2)cc1 | 1.161 mg/mL | -0.06 | –
COc1cc(/C=C\c2ccc(O)cc2)cc(OC)c1OC | 1.261 mg/mL | -0.1 | –
COc1cc(/C=C\c2ccc([N+](=O)[O-])cc2[N+](=O)[O-])cc(OC)c1OC | 1.05 mg/mL | -0.02 | 5
Oc1ccc(/C=C/c2cc(O)cc(O)c2)cc1 [RESVERATROL] | 0.816 mg/mL | – | –
COc1ccc(/C=C\c2cc(OC)c(OC)c(OC)c2)cc1O [COMBRETASTATIN A4] | 0.218 mg/mL | 0.66 | –
COc1ccc(/C=C(/C#N)c2cc(OC)c(OC)c(OC)c2)cc1O | 0.431 mg/mL | 0.36 | –
COc1ccc(/C=C\c2cc(OC)c(OC)c(OC)c2)cc1 | 0.327 mg/mL | 0.48 | –
COc1cc(/C=C\c2ccc(OC(C)=O)c(OC(C)=O)c2)cc(OC)c1OC | 1.918 mg/mL | -0.28 | –
COc1ccc(/C=C(/CO)c2cc(OC)c(OC)c(OC)c2)cc1O | 0.226 mg/mL | 0.65 | –
Oc1ccc(/C=C\c2ccc(Cl)cc2)cc1 | 0.412 mg/mL | 0.39 | –
CC(=O)Oc1ccc(/C=C\c2ccc(OC(C)=O)c(OC(C)=O)c2)cc1 | 0.64 mg/mL | 0.19 | –
COc1cc(/C=C\c2ccc([N+](=O)[O-])cc2)cc(OC)c1OC | 0.982 mg/mL | 0.01 | 3
